According to ChEMBL document CHEMBL4680278 (J Med Chem, 2020):

How the values were obtained:
[1] = biological target: D(1A) dopamine receptor (Homo sapiens, UniProt P21728); experiment: Inhibition of D1 dopamine receptor (unknown origin)
[2] = Critical aggregation concentration of compound by dynamic light scattering; format: physicochemical
[3] = Protein binding in human plasma incubated for 20 to 24 hrs; format: ADME, cell-free; settings: time 20-24 hrs, read-out: PPB (converted)
[4] = Cmax in human plasma at 3.5 +/- 5.5 mg, INH; format: ADME, cell-free; set-up: dose 3.5 mg; settings: inhaled or intranasal, 3.5 mg
[5] = Maximum drug concentration in Swiss mouse brain at 120 mg/kg, po measured up to 24 hrs by HPLC analysis; format: ADME, organism-based; set-up: route oral, dose 120 mg/kg, time <=24
[6] = Elimination half-life in human at 20 mg using aerosol spray measured for 6 weeks; format: ADME; settings: in vivo, inhaled_or_intranasal, 1008 h
[7] = biological target: T1, Cytochrome P450 1A2 (Homo sapiens, UniProt P05177); experiment: Competitive inhibition of human recombinant CYP1A2 using 7-Ethoxyresorufin as substrate by Lineweaver-Burk plot analysis; format: ADME; settings: read-out: Ki(app)
T1 sequence (P05177 whole entry): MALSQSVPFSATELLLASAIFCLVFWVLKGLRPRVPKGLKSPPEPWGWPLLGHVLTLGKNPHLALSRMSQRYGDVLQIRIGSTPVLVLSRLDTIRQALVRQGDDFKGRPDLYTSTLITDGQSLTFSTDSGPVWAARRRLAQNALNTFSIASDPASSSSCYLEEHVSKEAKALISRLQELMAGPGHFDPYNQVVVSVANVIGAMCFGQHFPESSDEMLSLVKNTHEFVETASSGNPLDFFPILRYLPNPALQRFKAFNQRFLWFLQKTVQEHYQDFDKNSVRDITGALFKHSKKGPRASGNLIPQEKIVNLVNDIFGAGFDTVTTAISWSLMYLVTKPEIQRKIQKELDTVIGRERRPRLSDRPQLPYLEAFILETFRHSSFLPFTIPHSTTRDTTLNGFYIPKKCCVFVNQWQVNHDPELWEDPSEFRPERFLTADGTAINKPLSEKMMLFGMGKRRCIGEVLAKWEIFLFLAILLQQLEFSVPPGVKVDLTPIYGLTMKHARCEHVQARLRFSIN

[8] = Half-life in human at 20 mg via smoking measured after 0.05 to 72 hrs by gas chromatograph mass spectrometry; format: ADME; settings: in vivo, inhaled or intranasal, time 0.05-72 hrs
[9] = Half-life in human at 10 mg/kg, po BID administered for 6 weeks measured weekly for 15 weeks by GC/MS analysis; format: ADME, organism-based; settings: in vivo
[10] = Apparent oral clearance in human at 5 to 20 mg using oromucosal-spray formulation by GC-MS analysis; format: ADME; settings: in vivo, dose 5-20 mg
[11] = Elimination rate constant in human using oromucosal-spray measured for 6 weeks
[12] = biological target: Cytochrome P450 3A5 (Homo sapiens, UniProt P20815); experiment: Competitive inhibition of human recombinant CYP3A5 expressed in baculovirus-infected insect cells using diltiazem as substrate incubated for 15 mins followed by NADPH-generating system addition by Michaelis-Menten plot analysis; format: ADME
Sequence of Cytochrome P450 3A5 (P20815 whole entry): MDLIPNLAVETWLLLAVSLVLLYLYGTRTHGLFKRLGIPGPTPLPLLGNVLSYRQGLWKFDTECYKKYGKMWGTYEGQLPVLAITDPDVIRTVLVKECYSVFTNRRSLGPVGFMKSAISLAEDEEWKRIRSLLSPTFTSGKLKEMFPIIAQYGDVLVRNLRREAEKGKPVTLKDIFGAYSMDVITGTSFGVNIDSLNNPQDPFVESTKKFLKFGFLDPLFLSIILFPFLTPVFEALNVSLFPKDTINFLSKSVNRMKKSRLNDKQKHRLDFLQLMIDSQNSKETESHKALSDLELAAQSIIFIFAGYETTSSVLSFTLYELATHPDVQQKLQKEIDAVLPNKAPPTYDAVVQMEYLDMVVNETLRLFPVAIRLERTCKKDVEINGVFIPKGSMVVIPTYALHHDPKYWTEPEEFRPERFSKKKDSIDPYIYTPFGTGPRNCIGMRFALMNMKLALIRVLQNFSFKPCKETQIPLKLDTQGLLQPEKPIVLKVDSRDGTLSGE

[13] = biological target: Cytochrome P450 3A7 (Homo sapiens, UniProt P24462); experiment: Mixed type inhibition of human recombinant CYP3A7 expressed in baculovirus-infected insect cells using diltiazem as substrate incubated for 30 mins followed by NADPH-generating system addition by Michaelis-Menten plot analysis; format: ADME
Sequence of Cytochrome P450 3A7 (P24462 whole entry): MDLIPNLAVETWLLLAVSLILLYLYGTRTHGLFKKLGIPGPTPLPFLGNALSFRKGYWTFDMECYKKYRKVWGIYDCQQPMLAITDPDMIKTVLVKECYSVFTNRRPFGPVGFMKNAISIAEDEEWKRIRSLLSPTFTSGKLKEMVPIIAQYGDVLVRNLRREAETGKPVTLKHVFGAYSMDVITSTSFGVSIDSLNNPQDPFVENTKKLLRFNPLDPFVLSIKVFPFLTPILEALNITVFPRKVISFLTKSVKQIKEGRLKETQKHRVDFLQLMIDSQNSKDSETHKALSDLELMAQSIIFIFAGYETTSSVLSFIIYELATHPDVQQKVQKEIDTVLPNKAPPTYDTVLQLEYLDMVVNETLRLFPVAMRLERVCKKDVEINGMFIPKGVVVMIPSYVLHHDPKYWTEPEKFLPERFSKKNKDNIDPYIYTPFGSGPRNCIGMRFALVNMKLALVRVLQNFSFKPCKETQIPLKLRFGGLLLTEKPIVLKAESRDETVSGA

[14] = tested on: Homo sapiens; experiment: Anti-seizure activity in Lennox-Gastaut patient assessed as median percent reduction in seizure frequency at 20 mg/kg administered daily for 14 weeks (reference value: 17%); format: functional; set-up: scale not given: the % may be the effect or the level left
[15] = Drug degradation in simulated gastric fluid at 40 mg incubated for 2 hrs by UPLC-MS analysis; format: ADME; settings: read-out: Drug degradation

Sequence of D(1A) dopamine receptor (P21728 whole entry): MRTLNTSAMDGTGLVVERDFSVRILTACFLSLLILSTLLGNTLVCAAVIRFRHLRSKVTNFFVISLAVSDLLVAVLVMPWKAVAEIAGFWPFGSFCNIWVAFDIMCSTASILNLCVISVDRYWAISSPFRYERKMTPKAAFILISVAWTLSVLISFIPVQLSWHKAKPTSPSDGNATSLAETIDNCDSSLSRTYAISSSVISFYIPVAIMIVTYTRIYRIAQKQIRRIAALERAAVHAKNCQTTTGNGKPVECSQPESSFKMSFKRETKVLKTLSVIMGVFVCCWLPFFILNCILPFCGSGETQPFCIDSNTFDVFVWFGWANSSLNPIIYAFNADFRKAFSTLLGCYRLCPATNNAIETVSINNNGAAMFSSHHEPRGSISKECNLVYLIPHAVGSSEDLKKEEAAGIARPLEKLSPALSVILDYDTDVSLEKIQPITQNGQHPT

Compound: C=C(C)[C@@H]1CCC(C)=C[C@H]1c1c(O)cc(CCCCC)cc1O [CANNABIDIOL]
- Ki [1]: 2.7 µM
- CAC [2]: 12.5 µM
- fraction unbound [3]: 0.1
- Cmax [4]: 0.0111 µM
- Cmax [5]: 4 µM
- beta t1/2 [6]: 2 h
- Ki [7]: 2.69 µM
- half-life [8]: 31 h
- half-life [9]: 48 h
- CL/F [10]: 41700 mL/min
- k el at 1008 h [11]: 3.33e-05 s⁻¹
- Ki [12]: 0.19 µM
- Ki [13]: 12.3 µM
- Activity [14]: 42%
- degraded at 2 h [15]: 98%
